Assay results taken from PMC11881559 (Antimicrobial Agents and Chemotherapy, 2025).

Assays:
[1] = 12-lead ECG QTcF assessment and C-QT model; type: in vivo, human
Experimental: To evaluate the cardiotoxicity of the drug, 12-lead ECG was conducted at several time points: 0 h, 1 h, 2 h, 4 h, 24 h, 48 h, 72 h, and 96 h after dosing in the SAD, food-effect, and DDI studies. In the MAD study, 12-lead ECG data were collected on day 1 (0 h, 1 h, 2 h, 4 h, and 8 h after dosing) and on day 5 (0 h, 1 h, 2 h, 4 h, 24 h, 48 h, 72 h, and 96 h after dosing), as well as before dosing and 2 h after dosing on days 2–4. Three consecutive ECGs were performed at each of these time points. The QT interval was corrected using the Fridericia formula [QTcF = QT / (RR^0.33), where RR = 60/heart rate]. Descriptive statistics were applied to the number of participants with abnormal changes in QTcF after dosing compared to baseline, including: (i) absolute value of QTcF >450 ms; (ii) absolute value of QTcF >500 ms; (iii) 30 ms < ΔQTcF ≤ 60 ms; (iv) ΔQTcF >60 ms (ΔQTcF = QTcF after dosing − baseline).

[2] = Exposure-response analysis of adverse events (logistic regression); set-up: species or system human
Text: For safety analysis, we also employed an exposure-response analysis method that included four binary outcomes: any adverse drug reaction (ADR), hypertriglyceridemia, hyperuricemia, and elevated creatinine levels. The exposure levels were derived by simulating individual parameter estimates from a population PK model ([23]), which generated dense sampling drug concentration-time curves. The noncompartmental analysis was subsequently performed using the PKNCA package in R software ver. 4.3 to calculate the area under the concentration-time curve over 24 h (AUC0-24) using the trapezoidal method and the maximum blood drug concentration within 24 h (Cmax).
logit(P(Yi=1))=β0+β1⋅log(Xi)
In this context, Xi represents the exposure (AUC0-24 and Cmax) of the ith subject, β0 denotes the intercept, and β1 indicates the coefficient for exposure. P(Yi = 1) represents the probability of AE occurrence, with logit referring to the logistic transformation.

[3] = rats; preclinical animal studies; cited from earlier work
[4] = Single ascending dose (SAD) study, plasma PK; type: in vivo, human; details: for AUC0-t / AUC0-∞ / Cmax / MRT0-∞ / λz: mean (%CV); for t1/2: mean ± SD; for Tmax: median (range)
Experimental: For the MAD and food-effect studies, the doses were chosen according to the PK and safety results of the SAD study. […] The tablets were administered from the lowest dosage. The next highest dose level was initiated based on PK characteristics and a 5-day safety observation of the previous dose by the investigators and sponsors. […] This study included two groups: one group under feeding conditions (a high-fat diet comprising 110 g of boiled eggs, 240 mL of milk, 20 g of bacon, 20 g of butter, 50 g of toast, 10 g of salad oil, and 115 g of chips consumed within 30 min before dosing) and one group under fasting conditions. […] Interventions for all cohorts, except the 200 mg cohort, were conducted at the First Hospital of Jilin University (Changchun, China). The randomization lists were created using the PLAN statistical procedure in SAS 9.4 software (SAS Institute, Cary, NC, USA). Throughout the study, unblinding was only used in the event of SAEs or other emergency situations; otherwise, blinding was maintained for investigators, participants, and sponsors until the study’s completion.
For the SAD, food-effect, and DDI studies, blood samples were collected before dose administration and at 15 min, 30 min, and 1, 1.5, 2, 3, 4, 6, 8, 12, 24, 36, 48, 72, and 96 h after dose administration. We used collection tubes containing the anticoagulant EDTA for PK assessments. In the MAD study, blood samples were obtained on day 1 at 0 h, 15 min, 30 min, and 1, 1.5, 2, 3, 4, 6, 8, and 12 h after dosing; on days 2–4; and on day 5 at 0 h, 15 min, 30 min, and 1, 1.5, 2, 3, 4, 6, 8, 12, 24, 36, 48, 72, and 96 h after dosing. The […] samples were subsequently centrifuged at 1,300 × g for 10 min at 2–8°C. For the food-effect component, urine samples were collected in tubes containing 0.01% Triton X-100 at the following intervals: 0, 0–6, 6–12, 12–24, 24–48, 48–72, 72–96, 96–120, 120–144, 144–168, and 168–192 h after administration. Fecal samples were collected from 0 h to 192 h after the first dose. All the samples were stored at −80°C.
The standard curve concentrations ranged from 5 to 5,000 ng/mL, 10 to 10,000 ng/mL, and 5 to 5,000 µg/g in the plasma, urine, and fecal samples, respectively. The lower limits of quantification were 5.00 ng/mL, 10.00 ng/mL, and 5.00 µg/g for the plasma, urine, and fecal samples, respectively.
The noncompartmental model (Phoenix WinNonlin ver. 8.2.2.227, Certara, Princeton, USA) was used to calculate the PK parameters: time to maximum observed plasma concentration (Tmax); maximum observed plasma concentration (Cmax); area under the concentration-time curve from the time of dosing to the last time point with measurable plasma concentrations of drug (AUC0-t); AUC from the time of dosing extrapolated to infinity (AUC0-∞); terminal elimination half-life of the drug in plasma (t1/2); clearance (CL/F); volume (Vz/F); terminal phase elimination rate constant (λz); and mean retention time (MRT). The power model was used to evaluate the relationship between PK parameters and the dose level, expressed as ln (PK parameter) = ln (α) + β * ln (dose), where ln (α) is the intercept of the transformed linear regression equation and β is the slope. Upon calculating the 90% CI of β, if the entire 90% CI of β falls within the judgment interval, the PK parameters can be deemed linearly related to the dosage.

## O=C(NC1CCCC1)C(=O)[C@H](C[C@@H]1CCNC1=O)NC(=O)[C@@H]1[C@H]2CCC[C@H]2CN1C(=O)[C@@H](NC(=O)C(F)(F)F)C1CCCCC1 [RAY1216, leritrelvir]
[1]; 700 mg combined with ritonavir BID group
  participants with absolute value of QTcF exceeding 450 ms: one
[1]; 700 mg combined with ritonavir BID, at average Cmax 9280 ng/mL, C-QT model, 90% CI: −1.6526–7.0164
  mean ΔΔQTcF: 2.6819 ms
[1]; C-QT model analysis
  correlation between drug concentration and the QT interval: no significant correlation
[1]; all cohorts
  participants exceeding a ΔQTcF of 60 ms: no participants
[1]; at the average Cmax concentration in each cohort, C-QT model predicted
  upper limit of the 90% CI for the average ΔΔQTcF: less than 10 ms
[2]
  exposure-response relationship of ADRs, hypertriglyceridemia, hyperuricemia, elevated creatinine with exposure (AUC0-24, Cmax): no significant dose-response relationship
[3]
  no-observed-adverse-effect level (NOAEL): 900 mg/kg/day
[4]; 200 mg single dose
  AUC0-t: 5,510 (22.7) ng·h/mL
  AUC0-∞: 5,550 (22.7) ng·h/mL
  Cmax: 1,270 (42) ng/mL
  MRT0-∞: 5.01 (13.5) h
  λz: 0.214 (6.2) h^−1
  t1/2: 3.25 ± 0.202 h
  Tmax: 1.5 (0.5, 2.0) h
[4]; 400 mg single dose
  AUC0-t: 11,700 (45.8) ng·h/mL
  AUC0-∞: 11,700 (45.6) ng·h/mL
  Cmax: 2,250 (53.8) ng/mL
  MRT0-∞: 6.05 (9.9) h
  λz: 0.172 (36) h^−1
  t1/2: 4.83 ± 2.86 h
  Tmax: 1.3 (1.0, 4.0) h
[4]; 800 mg single dose
  AUC0-t: 16,200 (18.7) ng·h/mL
  AUC0-∞: 16,300 (18.8) ng·h/mL
  Cmax: 3,590 (20.2) ng/mL
  MRT0-∞: 6.75 (38.2) h
  λz: 0.128 (73.6) h^−1
  t1/2: 10.3 ± 9.72 h
  Tmax: 1.5 (1.0, 3.0) h
[4]; 1,600 mg single dose
  AUC0-t: 29,100 (24.1) ng·h/mL
  AUC0-∞: 29,100 (24.1) ng·h/mL
  Cmax: 6,180 (20.1) ng/mL
  MRT0-∞: 5.94 (13.4) h
  λz: 0.139 (22.4) h^−1
  t1/2: 5.22 ± 1.16 h
  Tmax: 1.5 (1.0, 4.0) h
